In US20100167329A1, “DEVICE FOR DRUG SCREENING” (Respiratorius AB, priority 2006, published 2010):

Tested on: small human bronchi
Assay: Repeated LTD4 control contractions of tissue sample in the perfusion chamber (long time stability)
Conditions: LTD4 10 nM, 30 min, alternating with LTD4 free solution 60 min; repeated cycles n=8; after 14 h of measurements; FIG. 2
Protocol: One embodiment of the present invention is illustrated in FIG. 1, wherein the chamber 1 is made out of titanium and has a volume of typically 5 mL. The chamber is mounted on a mounting piece 2 of silver, which contains means for controlling the temperature of the chamber. An inlet 3 and outlet 4 allow a continuous flow of a physiological solution through the chamber ensuring a constant concentration of the substances in the chamber. Tissue sample is placed on hooks 8 and the hooks are placed in the chamber in a suitable position so that the tissue sample is completely immersed in the liquid flowing through the chamber. One of the hooks is attached to a force transducer 9 and the other is a fixed hook. Test substances are injected in the liquid prior to the liquid entering the chamber. As the tissue sample reacts to the substances present in the liquid the force transducer register the tension in the tissue sample due to contraction or relaxation. The force transducer is preferably AME801, which is commercially available from Infineon technologies.
A description of embodiments of the device according to the invention is shown in the previous section. In FIG. 2 control contractions in small human bronchi exposed to repeated (n=8) cycles with LTD4 (10 nM, 30 min) and LTD4 free solution (60 min) for 14 hours, are shown. The error bars show a low variance and good repeatability. […]

For CCCCC/C=C\C\C=C/C=C/C=C/[C@@H](SC[C@H](N)C(=O)NCC(=O)O)[C@@H](O)CCCC(=O)O [LTD4], the “original contraction of the bronchi remaining” value was ~80%.
